According to patent US20230192787A1, “DIAGNOSIS METHODS, DIAGNOSTIC AGENTS, AND THERAPEUTIC AGENTS AGAINST ALZHEIMER'S DISEASE AND FRONTOTEMPORAL LOBAR DEGENERATION, AND SCREENING METHODS FOR THESE AGENTS” (National University Corporation Tokyo Medical and Dental …, priority 2013, published 2023):
Entries after “also recorded” stand apart in the source; their conditions may differ.

How the values were obtained:
[1] = tested on: 5×FAD mice; assay: In vivo two-photon imaging of dendritic spines after administering kinase inhibitors/activator; set-up: species or system mouse; settings: 5×FAD mice (12 weeks old); for spine densities by morphological type (thin, mushroom, stubby) / spine dynamics: spine formation and stability: 36 hours and 60 hours after administration; for dendritic spine density (total spine density): layer 1 of retrosplenial cortex, 36 hours and 60 hours after administration by osmotic pump
Description: (§1) Two-photon imaging of dendritic spine was performed using a laser-scanning microscope system FV1000MPE2 (manufactured by Olympus Corporation) equipped with an upright microscope (BX61WI, manufactured by Olympus Corporation, a water-immersion objective lens (XLPlanN25xW; numerical aperture, 1.05), and a pulsed laser (MaiTai HP DeepSee, manufactured by Spectra Physics). In the imaging, EGFP was excited by light at a wavelength of 890 nm, and scanned in a range of 500 to 550 nm. Moreover, the scanned region for three-dimensional imaging was 100×100 μm (1 μm Z-axis steps, 1024×1024 pixels).
(§2) Additionally, two weeks before the imaging, adeno-associated virus 1 (AAV1)-EGFP with the synapsin 1 promoter (titer: 1×10^10 vector genomes/mL, 1 μL) was injected into the retrosplenial cortex (−2.0 mm anteroposterior and 0.6 mm mediolateral from the bregma, depth 1 mm) of mice under anesthesia with 2.5% isoflurane. Then, two weeks thereafter, the dendritic spines of the first layer (layer 1) of the cerebral cortex were observed through a thinned skull window according to the method described in “Yang, G. et al., Nat. Protoc., 2010, Vol. 5, pp. 201 to 208.”
Moreover, when the influence of kinase inhibition on dendritic spines was imaged, Alzet micro-osmotic pumps (model: 1003D, manufactured by Durect Corporation) filled with PBS/1% DMSO containing 1 μM Go6976 (manufactured by Calbiochem), 0.4 mM KN-93 (manufactured by Cayman Chemical), or 1 μM MLR1023 (manufactured by Glixx Laboratories) were implanted into mice under anesthesia with O2/isoflurane. […] Note that, regarding the PKC inhibitor Go6976, see Yan, Z. et al., Proc. Natl. Acad. Sci. U.S.A., 1999, Vol. 96, pp. 11607 to 11612. Regarding the CaMK inhibitor KN-93, see Galan, A. et al., Pain, 2004, Vol. 112, pp. 315 to 323. Regarding the Lyn activator MLR1023, see Saporito, M. S. et al., J. Pharmacol. Exp. Ther., 2012, Vol. 342, pp. 15 to 22.
In addition, the spine density, spine length, spine maximum diameter, and spine neck minimum diameter were measured from the obtained images using image analysis software IMARIS 7.2.2 (manufactured by Bitplane).
More concretely, the effect of the kinases on the synaptic pathology in the 5×FAD mice was analyzed by administering inhibitors and so forth against these kinases into the subarachnoid spaces of the mice. FIGS. 4 to 9 show the obtained result.

[2] = tested on: PGRN-KI mice; assay: In vivo two-photon imaging of synaptic spines in retrosplenial cortex of PGRN-KI mice (recovery experiment); set-up: species or system mouse
Description: as §1, §2
A pharmacological recovery experiment was conducted on the PGRN-KI mice as follows. […]
In addition, analyzed was whether or not vemurafenib and/or tau knockdown enabled recovery of spine related phenotype. […]

[3] = tested on: PGRN-KI mice; assay: Fear-conditioning test in FTLD model mice; assay type: in vivo, mouse; settings: provided every day over 6 weeks from 6 weeks old
Description: In this test, first, a mouse received a sound stimulus (65-dB white noise, 30 seconds) together with an electrical stimulus (0.4 mA, 2 seconds) on the foot. Then, after 24 hours, the mouse was measured for the frequency of the freezing reaction when the mouse received a sound stimulus but no electrical stimulus in the same chamber.
To be more specific, in accordance with the protocol shown in FIG. 21, a b-raf specific inhibitor vemurafenib or PBS was provided to the 6-week-old PGRN-KI mice every day over 6 weeks. Then, the behaviors of these mice were evaluated in the Morris water maze test and the fear-conditioning test. FIGS. 22 and 23 show the obtained result.
Meanwhile, the therapeutic effect of thalidomide was also tested. Note that thalidomide is known to suppress the TNF signal transduction pathway. Concretely, in accordance with the protocol shown in FIG. 24, thalidomide was administered to the PGRN-KI mice by peritoneal cavity injection every day for the same period as that in the protocol using the b-raf inhibitor. The behaviors of these mice were evaluated by the above two tests. FIGS. 25 and 26 show the obtained result.

[4] = tested on: PGRN-KI mice; assay: Morris water maze test in FTLD model mice; assay type: in vivo, mouse; settings: provided every day over 6 weeks from 6 weeks old
Description: In this test, the mice received a 60-second trial four times a day for 5 days. The time until each mouse reached the platform was measured.
Furthermore, the PGRN-KI mice were also subjected to six behavioral tests as in the case of Alzheimer's disease model mice described above. As a result, abnormalities regarding anxiety memory and anxiety-related memory were not observed in the open-field test, the light-dark box test, and the elevated plus maze test. […] Moreover, in the Morris water maze test, a statistically significant decrease was observed from the age of 3 months in the time during which the mice stayed in the target region or the number of times the mice passed through the target. […] Note that, in the Morris water maze test using the PGRN-KI mice, the mice received the 60-second trial four times a day for 5 days to learn the position of the platform (target region). […]
To be more specific, in accordance with the protocol shown in FIG. 21, a b-raf specific inhibitor vemurafenib or PBS was provided to the 6-week-old PGRN-KI mice every day over 6 weeks. Then, the behaviors of these mice were evaluated in the Morris water maze test and the fear-conditioning test. […]
Meanwhile, the therapeutic effect of thalidomide was also tested. […] The behaviors of these mice were evaluated by the above two tests. […]

[5] = tested on: PGRN-KI mice; assay: Immunohistological analysis of protein aggregation in brains of PGRN-KI mice; assay type: in vivo, mouse
Source text: To be more specific, as the first hypothesis, the aforementioned therapeutic effect by suppressing b-raf phosphorylation was presumably based on the elimination of protein aggregation in the nerve by vemurafenib or thalidomide. Accordingly, analyzed was the recovery effect of vemurafenib or thalidomide on the protein aggregation in the cerebral cortexes of the PGRN-KI mice.

[6] = tested on: phosphorylated b-RAF protein; assay: Western blot of cerebral cortexes of treated PGRN-KI mice, phosphorylated b-RAF; assay type: in vivo, mouse
Description: (§3) FIG. 27 is a figure for illustrating the result of western blot analysis on the cerebral cortexes of wild-type mice (WT) and the PGRN-KI mice to which vemurafenib was administered. […] “Anti-p-Braf” and “Anti-p-PKC” respectively show the analysis result of phosphorylated b-RAF protein and the analysis result of phosphorylated PKC protein. […] The significant differences were evaluated based on the P-value calculated by Student's independent t-test.
(§4) FIG. 28 is a figure for illustrating the result of western blot analysis on the cerebral cortexes of the PGRN-KI mice to which thalidomide was administered. […] “Anti-p-Braf”, “Anti-Braf”, and “Anti-p-PKC” respectively show the analysis result of phosphorylated b-raf protein, the analysis result of b-raf protein, and the analysis result of phosphorylated PKC protein. […] Further, in the figure, one asterisk indicates p<0.05 in Student's independent t-test, and two asterisks indicate p<0.01 in Student's independent t-test.
(§5) Moreover, the cerebral cortexes of the PGRN-KI mice treated with the agent were analyzed by western blot.

[7] = tested on: phosphorylated PKC protein; assay: Western blot of cerebral cortexes of treated PGRN-KI mice, phosphorylated PKC; assay type: in vivo, mouse
Description: as §3, §4, §5

Row | Structure (SMILES) | spine densities by morphological type (thin, mushroom, stubby) [1] | spine dynamics: spine formation and stability [1] | dendritic spine density (total spine density) [1] | number of spines ([2]; PGRN-KI mice (12 weeks old), vemurafenib 1.7 μM by osmotic pump for 3 days, shRNA imaged on Day 5) | spine volume ([2]; PGRN-KI mice, trend, not a statistically significant difference) | scores in the fear-conditioning test [3] | scores in the Morris water maze test [4] | FUS and p62 inclusion (IB) [5] | transition of TDP43 into the cytoplasm [5] | b-raf phosphorylation [6] | PKC phosphorylation [7]
1 | Cc1cccc(Oc2cnc(O)nc2)c1 [MLR1023] | the decreases were recovered | had a therapeutic effect on the spine formation and stability | recovered the decrease of spines |  |  |  |  |  |  |  | 
2 | CCCS(=O)(=O)Nc1ccc(F)c(C(=O)c2c[nH]c3ncc(-c4ccc(Cl)cc4)cc23)c1F [vemurafenib, N-{3-[5-(4-chlorophenyl)-1H-pyrrolo[2,3-b]pyridine-3-carbonyl]-2,4-difluorophenyl}propane-1-sulfonamide] |  |  |  | recovered the number of spines; also recorded: had a recovery effect on the number of spines | decreased the spine volume | remarkably recovered the scores in the two tests | remarkably recovered the scores in the two tests | no significant effect | no large change was observed | suppressed the b-raf phosphorylation | also suppressed the PKC phosphorylation
3 | O=C1CCC(N2C(=O)c3ccccc3C2=O)C(=O)N1 (centres unmarked) [thalidomide] |  |  |  |  |  | beneficial effects were finally verified | beneficial effects were finally verified | no significant effect | no large change was observed | the b-raf phosphorylation was suppressing | the PKC phosphorylation was not suppressed
4 | Cn1c2ccccc2c2c3c(c4c5ccccc5n(CCC#N)c4c21)CNC3=O [Go6976] | the decreases were recovered; also recorded: increased | enhanced the spine formation and stability | recovered the decrease of spines; also recorded: increased the total spine density |  |  |  |  |  |  |  | 
5 | COc1ccc(S(=O)(=O)N(CCO)c2ccccc2CN(C)C/C=C/c2ccc(Cl)cc2)cc1 [KN-93] | the decreases were recovered | had a therapeutic effect on the spine formation and stability | recovered the decrease of spines |  |  |  |  |  |  |  | 
